MIC data for ten compounds are collected here from DBAASP.

In brackets after ≈: the same amount, converted by molar mass. Several values for one entry are separate records, joined by “and”; a condition that tells them apart may be missing. Identical values can stand only once.

Test systems include Escherichia coli ML-35p; Bacillus megaterium Bm11; Staphylococcus capitis 1; Staphylococcus aureus; Escherichia coli W3110; Escherichia coli UB1005.
What all share (experiment): ≥ marks a high value that may be exact or a test limit, other limits are often not marked, values filed in µg/mL are converted to µM
Assay [1] concerns Candida albicans ATCC 20032.
The subject of assay [2] is Staphylococcus aureus ATCC 25923.
The test system of assay [3] is Listeria monocytogenes EGD.
Assay [4] has as its system Staphylococcus aureus Cowan 1.
Assay [5] relates to Candida albicans ATCC 10231.
Assay [6] deals with Escherichia coli ATCC 25922.
The test system of assay [7] is Yersinia pseudotuberculosis YPIII.
Assay [8] relates to Staphylococcus haemolyticus.
In assay [9] the test system is Bacillus subtilis ATCC 6633.
Assay [10] concerns Klebsiella pneumoniae ATCC BAA-1705.
The test system of assay [11] is Pseudomonas aeruginosa ATCC 27853.
In assay [12] the test system is Enterococcus faecalis ATCC 29212.
Assay [13] concerns Staphylococcus epidermidis C621.
The test system of assay [14] is Staphylococcus aureus KCTC 1621.
For assay [15], the system named is Escherichia coli KCTC 1682.
Assay [16] relates to Trichosporon beigelii KCTC 7707.
For assay [17], the system named is Salmonella typhimurium KCTC 1926.
Assay [18] deals with Candida albicans TIMM 1768.
The subject of assay [19] is Pseudomonas aeruginosa KCTC 1637.
The test system of assay [20] is Bacillus subtilis KCTC 1918.

By MIC is commonly meant the smallest concentration in the dilution series that meets the test's criterion for growth inhibition. Lower therefore signals a more susceptible organism. With `CC[C@H](C)[C@@H]1NC(=O)[C@H](CO)NC(=O)[C@H](CCCCN)NC(=O)[C@H]([C@@H](C)O)NC(=O)[C@H](Cc2c[nH]c3ccccc23)NC(=O)[C@@H](NC(=O)CNC(=O)[C@H](CCCN=C(N)N)NC(=O)[C@H](CC(C)C)NC(=O)[C@H](C)NC(=O)[C@H](C)N)CSSC[C@@H](C(=O)N[C@@H](CO)C(=O)NCC(=O)N[C@@H](CCCCN)C(=O)N[C@@H](CCCN=C(N)N)C(=O)O)NC(=O)[C@@H]2CCCN2C(=O)[C@H](CCCCN)NC(=O)[C@@H]2CCCN2C(=O)[C@@H]2CCCN2C1=O` [AALRGCWTKSIPPKPCSGKR], the values for the MIC in assay [1] and in assay [2] were 23.1 µM (≈ 49.8 µg/mL) and 5.8 µM (≈ 12.5 µg/mL), respectively.

As to `CC[C@H](C)[C@@H]1NC(=O)[C@H](CCCN=C(N)N)NC(=O)[C@@H]2CSSC[C@@H]3NC(=O)[C@H]([C@@H](C)O)NC(=O)CNC(=O)[C@H](Cc4ccc(O)cc4)NC(=O)[C@H](CCCN=C(N)N)NC(=O)[C@H](CCCN=C(N)N)NC(=O)[C@H](CCC(=O)O)NC(=O)CNC(=O)[C@H](C)NC(=O)[C@H](Cc4ccccc4)NC(=O)[C@H](CSSC[C@H](NC(=O)[C@H](Cc4ccccc4)NC(=O)[C@H](C)NC(=O)[C@H](Cc4c[nH]c5ccccc45)NC(=O)[C@H](C(C)C)NC(=O)[C@H](CCCN=C(N)N)NC(=O)CNC(=O)[C@H](CC(C)C)NC(=O)[C@H](Cc4ccc(O)cc4)NC(=O)[C@H](Cc4ccccc4)NC3=O)C(=O)N[C@H](C(=O)O)CSSC[C@H](NC(=O)[C@H](C)N)C(=O)N[C@@H](Cc3ccc(O)cc3)C(=O)N2)NC(=O)[C@H](C)NC(=O)[C@@H]2CCCN2C1=O` [ACYCRIPACFAGERRYGTCFYLGRVWAFCC], the MIC in the assay with Escherichia coli ML-35p was 2.4 µM and 7.1 µM; in assay [3] it was 2.2 µM and 1.8 µM.

Turning to `CC[C@H](C)[C@H](NC(=O)CNC(=O)[C@H](CO)NC(=O)[C@H](CC(C)C)NC(=O)[C@@H](NC(=O)[C@H](CCCN=C(N)N)NC(=O)[C@H](C)NC(=O)[C@@H](NC(=O)[C@H](CC(C)C)NC(=O)[C@@H]1CCCN1C(=O)[C@H](CC(C)C)NC(=O)[C@@H](N)Cc1ccccc1)[C@@H](C)CC)C(C)C)C(=O)N[C@@H](CC(C)C)C(N)=O` [FLPLIARVLSGIL], the MIC is 2.5 µM (≈ 3.53 µg/mL) against Bacillus megaterium Bm11; 2.5 µM (≈ 3.53 µg/mL) in assay [4]; 2.5 µM (≈ 3.53 µg/mL) in assay [5]; 5 µM (≈ 7.05 µg/mL) in the assay on Staphylococcus capitis 1; > 40 µM in assay [6]; 20 µM (≈ 28.2 µg/mL) in assay [7].

Turning to `CC(C)C[C@H](NC(=O)CNC(=O)CNC(=O)[C@H](C)NC(=O)[C@@H](NC(=O)[C@H](CC(N)=O)NC(=O)[C@H](CC(C)C)NC(=O)[C@H](CC(C)C)NC(=O)[C@H](CC(=O)O)NC(=O)[C@@H](NC(=O)[C@@H](NC(=O)[C@@H](NC(=O)CN)C(C)C)C(C)C)[C@@H](C)O)[C@@H](C)O)C(=O)N[C@@H](CC(C)C)C(=O)NCC(=O)N[C@@H](CC(N)=O)C(=O)N[C@@H](CC(C)C)C(=O)N[C@H](C(=O)NCC(=O)N[C@@H](CO)C(=O)N[C@@H](CC(C)C)C(=O)N[C@@H](CO)C(=O)NCC(N)=O)C(C)C` [GVVTDLLNTAGGLLGNLVGSLSG], the MIC is ≥ 400 µM in assay [8] and 300 µM (≈ 638 µg/mL) against Staphylococcus aureus.

Take `CC[C@H](C)[C@H](N)C(=O)N[C@@H](CC(C)C)C(=O)NCC(=O)N1CCC[C@H]1C(=O)N[C@H](C(=O)N[C@H](C(=O)N[C@@H](CO)C(=O)N[C@H](C(=O)N[C@H](C(=O)NCC(=O)N[C@@H](CC(N)=O)C(=O)N[C@@H](C)C(=O)N[C@@H](CC(C)C)C(=O)NCC(=O)NCC(=O)N[C@@H](CC(C)C)C(=O)N[C@@H](CC(C)C)C(=O)N[C@@H](CCCCN)C(=O)N[C@@H](CC(N)=O)C(=O)N[C@@H](CC(C)C)C(N)=O)[C@@H](C)CC)[C@@H](C)O)[C@@H](C)CC)C(C)C` [ILGPVISTIGNALGGLLKNL]: the MIC in [1] is ≥ 50.9 µM; in [6] it was > 50.9 µM; in [9], ≥ 50.9 µM; in assay [2], > 50.9 µM.

Regarding `CC[C@H](C)[C@H](N)C(=O)N[C@@H](CC(C)C)C(=O)NCC(=O)N1CCC[C@H]1C(=O)N[C@H](C(=O)N[C@@H](CC(C)C)C(=O)NCC(=O)N[C@@H](CC(C)C)C(=O)N[C@H](C(=O)N[C@@H](CO)C(=O)N[C@@H](CC(N)=O)C(=O)N[C@@H](C)C(=O)N[C@@H](CC(C)C)C(=O)NCC(=O)NCC(=O)N[C@@H](CC(C)C)C(=O)N[C@@H](CC(C)C)C(N)=O)C(C)C)C(C)C` [ILGPVLGLVSNALGGLL], the MIC was ≥ 62.3 µM in assay [1], > 62.3 µM in [6], ≥ 62.3 µM in assay [9] and > 62.3 µM in assay [2].

Take `CC[C@H](C)[C@H](N)C(=O)N[C@@H](Cc1c[nH]c2ccccc12)C(=O)N[C@@H](Cc1c[nH]c2ccccc12)C(=O)N[C@@H](C)C(=O)N[C@@H](CCCCN)C(=O)N[C@@H](CC(C)C)C(=O)NCC(=O)N[C@@H](CC(C)C)C(=O)N[C@@H](CCCCN)C(=O)N[C@@H](CC(C)C)C(=O)N[C@@H](CC(C)C)C(=O)N[C@@H](CCCN=C(N)N)C(=O)N[C@@H](Cc1ccc(O)cc1)C(=O)N[C@@H](CCCN=C(N)N)C(=O)N[C@@H](CCCN=C(N)N)C(=O)N[C@@H](Cc1c[nH]c2ccccc12)C(=O)N[C@@H](Cc1ccc(O)cc1)C(=O)O` [IWWAKLGLKLLRYRRWY]: the MIC in assay [10] turned out to be 4 µM (≈ 9.29 µg/mL); against Escherichia coli W3110, 2 µM (≈ 4.64 µg/mL).

In the case of `CC[C@H](C)[C@H](N)C(=O)N[C@@H](Cc1c[nH]c2ccccc12)C(=O)N[C@@H](Cc1c[nH]c2ccccc12)C(=O)N[C@@H](C)C(=O)N[C@@H](CCCCN)C(=O)N[C@@H](Cc1c[nH]c2ccccc12)C(=O)NCC(=O)N[C@@H](CC(C)C)C(=O)N[C@@H](CCCCN)C(=O)N[C@@H](CC(C)C)C(=O)N[C@@H](CC(C)C)C(=O)N[C@@H](CCCN=C(N)N)C(=O)N[C@@H](Cc1ccc(O)cc1)C(=O)N[C@@H](CCCN=C(N)N)C(=O)N[C@@H](CCCN=C(N)N)C(=O)N[C@H](C(=O)N[C@@H](Cc1c[nH]c2ccccc12)C(=O)O)[C@@H](C)CC` [IWWAKWGLKLLRYRRIW], the values for the minimal inhibitory concentration (MIC) (in assay [10]; against Escherichia coli W3110) were ≥ 32 µM and 4 µM (≈ 9.38 µg/mL), respectively.

As for `C[C@H](NC(=O)[C@H](C)NC(=O)[C@H](C)NC(=O)[C@H](CCCCN)NC(=O)[C@@H](N)CCCCN)C(=O)N[C@@H](C)C(=O)N[C@@H](Cc1ccccc1)C(=O)N[C@@H](C)C(=O)N[C@@H](C)C(=O)N[C@@H](Cc1ccccc1)C(=O)N[C@@H](C)C(=O)N[C@@H](C)C(=O)N[C@@H](Cc1c[nH]c2ccccc12)C(=O)N[C@@H](Cc1ccccc1)C(=O)N[C@@H](C)C(=O)N[C@@H](C)C(=O)N[C@@H](Cc1ccccc1)C(=O)N[C@@H](C)C(=O)N[C@@H](C)C(=O)N[C@@H](C)C(=O)N[C@@H](C)C(=O)N[C@@H](CCCCN)C(=O)N[C@@H](CCCCN)C(=O)N[C@@H](CCCCN)C(=O)N[C@@H](CCCCN)C(N)=O` [KKAAAAFAAFAAWFAAFAAAAKKKK], the MIC was 8 µM (≈ 20.4 µg/mL) in assay [11]; 8 µM (≈ 20.4 µg/mL) against Escherichia coli UB1005; > 32 µM in [12]; 16 µM (≈ 40.9 µg/mL) in assay [6]; 2 µM (≈ 5.11 µg/mL) in assay [9]; 4 µM (≈ 10.2 µg/mL) in assay [13]. The same compound returned an MIC in assay [2] of 32 µM (≈ 81.8 µg/mL).

Consider `CC(C)C[C@H](NC(=O)[C@H](CCCCN)NC(=O)[C@H](CCCCN)NC(=O)[C@H](CC(C)C)NC(=O)[C@H](CC(C)C)NC(=O)[C@H](CCCCN)NC(=O)[C@H](CCCCN)NC(=O)[C@H](CC(C)C)NC(=O)[C@H](CC(C)C)NC(=O)[C@@H]1CCCN1C(=O)[C@H](CCCCN)NC(=O)[C@H](CCCCN)NC(=O)[C@H](Cc1c[nH]c2ccccc12)NC(=O)[C@@H](N)CCCCN)C(N)=O` [KWKKPLLKKLLKKL], for which the MIC is 6.25 µM (≈ 11 µg/mL) in assay [14]; 6.25 µM (≈ 11 µg/mL) in assay [15]; 1.56 µM (≈ 2.75 µg/mL) in assay [16]; 1.56 µM (≈ 2.75 µg/mL) in [17]; 12.5 µM (≈ 22 µg/mL) in assay [18]; 3.12 µM (≈ 5.5 µg/mL) in [19]. The same compound gave an MIC in [20] of 3.12 µM (≈ 5.5 µg/mL).
